Experimental data: patent publication US9765075B2, “Substituted bridged urea analogs as sirtuin modulators” (GLAXOSMITHKLINE LLC, priority 2013, dated 2017)
Numbering of substitutions follows the chain as printed. Structures can show the parent of a compound that is named as a salt.

Assays:
Type in all cases: biochemical
[1] = target: T1, full-length hSIRT1 WT (Homo sapiens, UniProt Q96EB6); experiment: SIRT1 activation dose-response, OAcADPr assay with Ac-p53(W5) substrate; conditions: for EC50: hSIRT1 WT, activation dose-response, Ac-p53(W5) substrate
T1 construct: Full-length human SIRT1 (hSIRT1) proteins were expressed with a C-terminal His6 tag; His6 (C); made in house
T1 sequence (Q96EB6 1-747): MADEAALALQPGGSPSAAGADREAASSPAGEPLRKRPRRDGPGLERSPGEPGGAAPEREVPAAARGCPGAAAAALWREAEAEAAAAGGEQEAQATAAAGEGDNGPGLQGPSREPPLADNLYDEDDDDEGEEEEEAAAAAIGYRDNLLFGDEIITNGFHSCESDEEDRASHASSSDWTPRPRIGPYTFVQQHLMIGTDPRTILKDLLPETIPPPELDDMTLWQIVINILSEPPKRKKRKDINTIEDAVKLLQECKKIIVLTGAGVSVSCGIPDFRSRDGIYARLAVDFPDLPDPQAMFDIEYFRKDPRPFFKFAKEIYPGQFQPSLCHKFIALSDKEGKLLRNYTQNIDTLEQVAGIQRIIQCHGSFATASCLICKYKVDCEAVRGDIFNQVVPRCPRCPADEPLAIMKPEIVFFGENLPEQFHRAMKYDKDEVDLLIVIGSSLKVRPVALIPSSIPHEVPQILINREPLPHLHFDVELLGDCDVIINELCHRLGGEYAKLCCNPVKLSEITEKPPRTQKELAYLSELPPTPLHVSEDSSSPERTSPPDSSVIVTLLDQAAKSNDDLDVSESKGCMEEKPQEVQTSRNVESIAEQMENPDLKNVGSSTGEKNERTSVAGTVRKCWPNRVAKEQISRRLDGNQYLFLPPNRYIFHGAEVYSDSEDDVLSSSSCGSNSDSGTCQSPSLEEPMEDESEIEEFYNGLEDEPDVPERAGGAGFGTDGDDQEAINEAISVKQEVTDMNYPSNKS

[2] = target: T2, full-length hSIRT1 N226A (Homo sapiens, UniProt Q96EB6, N226A); experiment: SIRT1 inhibition assay, OAcADPr mass spectrometry
T2 construct: The following point mutants of full-length hSIRT1 were generated; His6 (C); made in house
T2 sequence (Q96EB6 1-747 N226A): T1 sequence (Q96EB6 1-747) with N226A

[3] = target: T3, full-length hSIRT1 I223A (Homo sapiens, UniProt Q96EB6, I223A); experiment: SIRT1 inhibition assay, OAcADPr mass spectrometry
T3 construct: The following point mutants of full-length hSIRT1 were generated; His6 (C); made in house
T3 sequence (Q96EB6 1-747 I223A): T1 sequence (Q96EB6 1-747) with I223A

Row | EC50 fold shift (mutant EC50/wild-type EC50) [1] | RVmax fold shift = (wild-type RVmax−1)/(mutant RVmax−1) [1] | EC50 [1] | Compound | IC50 [2] | IC50 [3]
1 | 1.00 | 1.00 | 2200 nM | O=C(Nc1ccccn1)N1c2nc(-c3cccc(C(F)(F)F)c3)ccc2N2CC[C@H]1C2 [Example 7] |  | 
2 | 1.00 | 1.00 | 480 nM | Cc1cnc2c(NC(=O)N3c4nc(-c5cccc(C(F)(F)F)c5)ccc4N4CC[C@H]3C4)cccc2n1 [Example 8] |  | 
3 |  |  |  | CCCC[C@H](NC(=O)[C@H](CC(C)C)NC(=O)[C@H](CCCCNC(=O)C(F)(F)F)NC(=O)[C@H](CCCCN)NC(=O)[C@H](Cc1c[nH]cn1)NC(=O)[C@H](CCCNC(=N)N)NC(C)=O)C(=O)N[C@@H](Cc1ccccc1)C(N)=O [TFA-p53 7-mer, Ac-RHK-K^TFA-L-Nle-F-NH2] | 350 ± 40 nM | 540 ± 150 nM
